Assay results reported in patent US6737537B2, “Platinum (II) antitumor compounds” (Parker Hughes Institute, priority 1999, dated 2004).

Assays:
[1] = system: BT-20 (Breast Cancer); experiment: MTT cytotoxicity assay, BT-20 cells, 48 hours; assay type: cell-based; details: 48 hours incubation, read-out: IC50 [MTT Assays] BT-20 (Breast Cancer)
Description: (§1) Cytotoxicity was determined by MTT assays and the IC50 values were determined using Graphpad Prism Software.

[2] = system: U373 (Brain Tumor); experiment: MTT cytotoxicity assay, U373 cells, 48 hours; assay type: cell-based; details: 48 hours incubation, read-out: IC50 [MTT Assays] U373 (Brain Tumor)
Description: as §1

[3] = system: MOLT-3 (Leukemia); experiment: MTT cytotoxicity assay, MOLT-3 cells, 48 hours; assay type: cell-based, human; details: 48 hours incubation, read-out: IC50 [MTT Assays] MOLT-3 (Leukemia)
Description: (§2) The cells were incubated with concentrations ranging from 0.1 μM to 250 μM of the appropriate compound in 96-well plates for 48 hours. Cytotoxicity was determined by MTT [(3-[4,5-dimethylthiazol-2-yl]-2,5-diphenyl tetrazolium bromide)] assays. The results are graphed in FIG. 1a for NALM-6 cells and FIG. 1b for MOLT-3 cells.
as §1

[4] = system: PC3 (Prostate Cancer); experiment: MTT cytotoxicity assay, PC3 cells, 48 hours; assay type: cell-based; details: 48 hours incubation, read-out: IC50 [MTT Assays] PC3 (Prostate Cancer)
Description: as §1

[5] = system: U266BL (Multiple Myeloma); experiment: MTT cytotoxicity assay, U266BL cells, 48 hours; assay type: cell-based; details: 48 hours incubation, read-out: IC50 [MTT Assays] U266BL (Multiple Myeloma)
Description: as §1

[6] = system: NALM-6 (Leukemia); experiment: MTT cytotoxicity assay, NALM-6 cells, 48 hours; assay type: cell-based, human; details: 48 hours incubation, read-out: IC50 [MTT Assays] NALM-6 (Leukemia)
Description: as §2, §1

[7] = system: HS-Sultan (Multiple Myeloma); experiment: MTT cytotoxicity assay, HS-Sultan cells, 48 hours; assay type: cell-based; details: 48 hours incubation, read-out: IC50 [MTT Assays] HS-Sultan (Multiple Myeloma)
Description: as §1

[8] = system: MDA-MB-231 (Breast Cancer); experiment: MTT cytotoxicity assay, MDA-MB-231 cells, 48 hours; assay type: cell-based; details: 48 hours incubation, read-out: IC50 [MTT Assays] MDA-MB-231 (Breast Cancer)
Description: as §1

[9] = system: multiple myeloma (ARH-77) cells; experiment: In situ apoptosis assay (TUNEL), ARH-77 cells; assay type: cell-based, human; details: 5 μM, 48 hours
Description: (§3) The effectiveness of inducing apoptosis by compound (5) as synthesized and described in example 2 was measured for human B-lineage acute lymphoblastic leukemia (NALM-6) cells, T-lineage acute lymphoblastic leukemia (MOLT-3) cells, and multiple myeloma (ARH-77) cells. The cells were incubated with concentrations of 5 μM of compound (5) in 96-well plates 48 hours. An in situ apoptosis assay, which allows the detection of exposed 3′-hydroxyl groups in fragmented DNA by TdT-mediated dUTP nick-end labeling (TUNEL), was used by fixing, permeabilizing and visualizing the DNA degradation. Apoptotic nuclei were detected visually with a color change. The amount of apoptotic nuclei of the control cells (not incubated with compound (5)) and the incubated cells were compared.

[10] = system: T-lineage acute lymphoblastic leukemia (MOLT-3) cells; experiment: In situ apoptosis assay (TUNEL), MOLT-3 cells; assay type: cell-based, human; details: 5 μM, 48 hours
Description: as §3

[11] = system: B-lineage acute lymphoblastic leukemia (NALM-6) cells; experiment: In situ apoptosis assay (TUNEL), NALM-6 cells; assay type: cell-based, human; details: 5 μM, 48 hours
Description: as §3

[12] = system: B-lineage acute lymphoblastic leukemia (NALM-6) cells; experiment: Clonogenic growth assay, NALM-6 cells; assay type: cell-based, human; details: 24 hours exposure, 7 days culture
Description: (§4) The effect on clonogenic growth of human cancer cell lines was determined for compound (5) as synthesized and described in example 2 and cisplastin for human B-lineage acute lymphoblastic leukemia (NALM-6) cells and T-lineage acute lymphoblastic leukemia (MOLT-3) cells. The cells were incubated with concentrations ranging from 0 (control) to 10 μM of the appropriate compound for 24 hours at 37° C. in a humidified 5% CO2 atmosphere. The cells were then resuspended in clonogenic a-MEM medium containing 0.9% methyl cellulose. 1×10^4 cells/dish were plated in 35 mm Petri dishes and cultured for 7 days at 37° C. in a humidified 5% CO2 atmosphere. The colonies containing ≧20 cells were counted using an inverted phase microscope.

[13] = system: T-lineage acute lymphoblastic leukemia (MOLT-3) cells; experiment: Clonogenic growth assay, MOLT-3 cells; assay type: cell-based, human; details: 24 hours exposure, 7 days culture
Description: as §4

Compound | IC50 [1] [µM] | IC50 [2] [µM] | IC50 [3] [µM] | IC50 [4] [µM] | IC50 [5] [µM] | IC50 [6] [µM] | IC50 [7] [µM] | also measured
N.N.[Cl][Pt][Cl] [Cisplatin, reference compound] | 7.21 ± 3.5 | > 250 | 1.04 ± 0.02 | > 250 | 15.6 ± 3.5 | 1.1 ± 0.02 | 31.8 ± 7.2 | –
cis-[Pt(CPDCA)(DACH)]H2O [(5) DDE250] | 21.3 ± 3.1 | > 250 | 0.66 ± 0.01 | > 250 | 18.6 ± 2.1 | 0.45 ± 0.02 | 21.5 ± 3.5 | IC50 [8]: 38.5 ± 6.4 µM; apoptosis (apoptotic nuclei, TUNEL) over the control [9]: greatly increased apoptosis over the control; apoptosis (apoptotic nuclei, TUNEL) over the control [10]: greatly increased apoptosis over the control; apoptosis (apoptotic nuclei, TUNEL) over the control [11]: greatly increased apoptosis over the control; % Inhibition (clonogenic growth) ([12]; NALM-6, 0.01 μM): 42.9%; Mean No. of Colonies/10^5 cells ([12]; NALM-6, 0.01 μM): 2110 (1928, 2292) Colonies/10^5 cells; % Inhibition (clonogenic growth) ([12]; NALM-6, 0.1 μM): 48.4%; Mean No. of Colonies/10^5 cells ([12]; NALM-6, 0.1 μM): 1908 (1886, 1930) Colonies/10^5 cells; % Inhibition (clonogenic growth) ([12]; NALM-6, 1 μM): 93.3%; Mean No. of Colonies/10^5 cells ([12]; NALM-6, 1 μM): 248 (228, 268) Colonies/10^5 cells; Mean No. of Colonies/10^5 cells ([12]; NALM-6, 10 μM): 0 Colonies/10^5 cells; % Inhibition (clonogenic growth) ([13]; MOLT-3, 0.01 μM): 67.7%; Mean No. of Colonies/10^5 cells ([13]; MOLT-3, 0.01 μM): 1182 (1080, 1284) Colonies/10^5 cells; % Inhibition (clonogenic growth) ([13]; MOLT-3, 0.1 μM): 67.5%; Mean No. of Colonies/10^5 cells ([13]; MOLT-3, 0.1 μM): 1188 (1095, 1281) Colonies/10^5 cells; % Inhibition (clonogenic growth) ([13]; MOLT-3, 1 μM): 95.1%; Mean No. of Colonies/10^5 cells ([13]; MOLT-3, 1 μM): 179 (170, 188) Colonies/10^5 cells; Mean No. of Colonies/10^5 cells ([13]; MOLT-3, 10 μM): 0 Colonies/10^5 cells
cis-[Pt(CPDCA)(NH2C2H4OH)2] [(3) DDE248] | 48.9 ± 7.3 | 130 ± 8.2 | 33.5 ± 4.5 | 248 ± 9.3 | – | 75.3 ± 5.2 | – | –
cis-[Pt(CPDCA)(NH3)2]H2O [(6) DDE173] | > 250 | > 250 | 41.8 ± 3.5 | > 250 | – | 90.8 ± 6.2 | – | –
